The source made the active and inactive calls.
How the values were obtained:
[1] = HeLa 2N DNA content increase, dose response, cell-based, IC50 (AID 1117349); format: functional
[2] = Concentration-dependent survival of SW480 colon cancer line, luminescence detection with CellTiter-Glo, half-maximal inhibitory concentration (AID 1117338); format: functional
[3] = RKO cell viability reduction, dose response, CellTiter-Glo luminescence (AID 1117322); format: functional
[4] = cytotoxicity toward HCT116 cells – cell-based, CellTiter-Glo luminescence, IC50, dose response (AID 1117332); format: functional; settings: HCT-116
[5] = SNU-C1 cell viability reduction, dose response, CellTiter-Glo luminescence (AID 1117323); format: functional, cell-based
[6] = cytotoxicity toward Colo320 cells – cell-based, CellTiter-Glo luminescence, IC50, dose response (AID 1117334); format: functional; settings: COLO 320
[7] = HeLa 4N DNA content increase, dose response, cell-based, IC50 (AID 1117351); format: functional
[8] = cytotoxicity toward HT-29 cells – cell-based, CellTiter-Glo luminescence, IC50, dose response (AID 1117330); format: functional
[9] = CellTiter-Glo luminescent dose response of DLD-1 viability loss (AID 1117352); format: functional
[10] = HCT116 cell viability decrease, GSK3B pretreatment – CellTiter-Glo, IC50, dose response (AID 1117339); format: functional; settings: HCT-116
[11] = biological target: T1, Low molecular weight phosphotyrosine protein phosphatase (Homo sapiens, UniProt P24666); assay: LMPTP phosphatase inhibitors, dose response, biochemical, OMFP substrate, fluorescence intensity, set 2 (AID 743307); format: functional
T1 sequence (P24666 whole entry): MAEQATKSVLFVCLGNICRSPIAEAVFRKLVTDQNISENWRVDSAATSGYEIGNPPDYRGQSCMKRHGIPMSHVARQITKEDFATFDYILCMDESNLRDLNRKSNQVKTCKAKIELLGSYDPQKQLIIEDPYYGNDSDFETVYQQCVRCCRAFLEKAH

[12] = biological target: T1, Low molecular weight phosphotyrosine protein phosphatase; assay: LMPTP phosphatase inhibitors, colorimetric pNPP readout, dose response, orthogonal assay, biochemical, absorbance, pNPP substrate, LMPTP-A isoform, set 2 (AID 743308); format: functional
[13] = P. falciparum 3D7-ScDHODH growth inhibitors, dose response, SYBR Green, dry powder samples (AID 1159570); format: functional, cell-based;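 also: parasite growth measured after 72 hours of compound exposure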
[14] = HepG2 cell cytotoxicity, dose response, cytotoxicity control, plate reader, dry powder samples (AID 1159569); format: functional, cell-based;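 also: inhibitor potency with signal falling toward the positive control level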
[15] = P. falciparum Dd2 growth inhibitors, dose response, SYBR Green, cherry-picked samples (AID 1159567); format: functional, cell-based
[16] = P. falciparum Dd2 growth inhibitors, dose response, SYBR Green, dry powder samples (AID 1159566); format: functional, cell-based;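 also: potency for growth inhibition with lower SYBR green DNA signal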
[17] = P. falciparum ATP4 D1247Y mutant growth inhibitors, dose response, NITD609-resistant line, SYBR Green, dry powder (AID 1159571); format: functional, cell-based;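 also: parasites synchronized at ring stage by sorbitol before testing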
[18] = biological target: Transthyretin (Homo sapiens, UniProt P02766); assay: Luminescence-based cell-based high throughput dose response assay to identify activators of Transthyretin (TTR) transcription.; format: functional
[19] = P. falciparum late gametocyte killing, dose response, luminescence (AID 1117278); format: functional, cell-based;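 also: gametocytes exposed to compound for 24 hours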
[20] = Jurkat T cell cytotoxicity, dose response, cytotoxicity control for P. falciparum gametocyte viability project, luminescence (AID 1117277); format: functional, cell-based;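 also: potency reflects loss of cellular ATP meaning fewer viable cells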
[21] = TRPM1 promoter luciferase reporter signal decrease, dose response, MITF inhibitor project, cell-based, SK-MEL-5, dry powder, set 9 (AID 651588); format: functional
[22] = MITF Orthogonal Assay: MALME3 CTG Assay Measured in Cell-Based System Using Plate Reader - 2084-04_Inhibitor_Dose_DryPowder_Activity_Set6.; format: functional; settings: MALME-3
[23] = SK-MEL-5 parental cell viability reduction, dose response, orthogonal assay for MITF inhibitor project, CellTiter-Glo luminescence, dry powder, set 8 (AID 651586); format: functional, cell-based
[24] = MALME3 melanoma cell viability reduction, dose response, orthogonal assay for MITF inhibitor project, CellTiter-Glo luminescence, dry powder, set 5 (AID 651584); format: functional, cell-based; settings: MALME-3
[25] = MITF Orthogonal Assay: SK-MEL-5 CTG Assay Measured in Cell-Based System Using Plate Reader - 2084-02_Inhibitor_Dose_DryPowder_Activity_Set7.; format: functional
[26] = MITF: Counter assay: A375 proliferation Measured in Cell-Based System Using Plate Reader - 2084-03_Inhibitor_Dose_DryPowder_Activity_Set8.; format: functional; settings: A-375
[27] = TRPM1 promoter luciferase reporter signal decrease, dose response, MITF inhibitor project, cell-based, SK-MEL-5, dry powder, set 8 (AID 624430); format: functional

Question: With `Cc1cc(N)c2ccccc2[n+]1CCCCCCCCCC[n+]1c(C)cc(N)c2ccccc21` as the compound, how does the IC50 [1] read?
Answer: > 10 µM (inactive)

Question: What about the IC50 [2] of the same compound?
Answer: 3.83 µM (active)

Question: And the IC50 [3]?
Answer: 2.45 µM (active)

Question: And the IC50 [4]?
Answer: > 20 µM (inactive)

Question: And the IC50 [5]?
Answer: 1.29 µM (active)

Question: What about the IC50 [6] of the same compound?
Answer: 15.9 µM (inactive)

Question: And the IC50 [7]?
Answer: > 10 µM (inactive)

Question: And the IC50 [8]?
Answer: > 20 µM (inactive)

Question: And the IC50 [9]?
Answer: 5.72 µM (inactive)

Question: And the IC50 [10]?
Answer: > 20 µM (inactive)

Question: Which results are given for `FC(F)(F)c1cccc(-c2cc(NCCCN3CCCCC3)c3ccccc3n2)c1`?
Answer: IC50 [11]: 2.66 µM (active); IC50 [12]: 6.94 µM (active)

Question: For `OC[C@@H]1[C@@H](c2ccccc2)C2(CN(CCC(F)(F)F)C2)N1Cc1ccccc1`, which AC50 [13] is on record?
Answer: 2.89 µM (active)

Question: And the AC50 [14]?
Answer: 69.1 µM (active)

Question: And the AC50 [15]?
Answer: 2.27 µM (active)

Question: And the AC50 [16]?
Answer: 2.48 µM (active)

Question: What about the AC50 [17] of the same compound?
Answer: 2.36 µM (active)

Question: Which EC50 [18] does the source give for `Cn1cc(C2CC(c3ccccc3)=NN2C(=O)c2ccccc2)c2ccccc21` (configuration not stated) here?
Answer: > 167 µM (inactive)

Question: For `OCC1(Cc2ccccc2)CCN(Cc2cnc(-c3ccc(Cl)cc3)nc2)CC1`, which IC50 [19] is on record?
Answer: > 109 µM (inactive)

Question: And the IC50 [20]?
Answer: > 83.3 µM (inactive)

Question: With `CC(C)N1CCN(C2=C(Nc3ccc(F)cc3F)C(=O)c3ccccc3C2=O)CC1` as the compound, how does the AC50 [21] read?
Answer: 9.91 µM (active)

Question: And the AC50 [22]?
Answer: 25.4 µM (active)

Question: What about the AC50 [23] of the same compound?
Answer: 59.1 µM (active)

Question: And the AC50 [24]?
Answer: 25.4 µM (active)

Question: What about the AC50 [25] of the same compound?
Answer: 8.73 µM (active)

Question: What about the AC50 [26] of the same compound?
Answer: > 70 µM (inactive)

Question: And the AC50 [27]?
Answer: 2.16 µM (active)

Reference: ChEMBL document CHEMBL1201862, “PubChem BioAssay data set” (2004)
